Experiments:
[1] = biological target: T1, ERα-LBD (estrogen receptor, ER) (Homo sapiens, UniProt P03372); experiment: ITC (reverse titration, purified ERα-LBD); format: binding
T1 construct: gene ESR1; ERα-LBD (aa 298–554)
T1 sequence (P03372 298-554): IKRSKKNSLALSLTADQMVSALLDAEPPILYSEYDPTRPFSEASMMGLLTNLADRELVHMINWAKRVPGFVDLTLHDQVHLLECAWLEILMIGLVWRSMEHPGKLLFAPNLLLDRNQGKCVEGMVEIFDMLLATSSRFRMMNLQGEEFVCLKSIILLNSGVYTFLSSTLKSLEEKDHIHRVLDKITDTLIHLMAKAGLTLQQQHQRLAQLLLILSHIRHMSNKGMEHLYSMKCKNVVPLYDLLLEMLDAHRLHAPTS

[2] = biological target: T2, VHL (Homo sapiens, UniProt P40337); experiment: ITC (reverse titration, purified VCB complex); format: binding
T2 construct: VHL (aa 54-213) in His-tagged VCB complex with EloB (aa 1-104) and EloC (aa 1-112); with EloB and EloC (VCB complex)
T2 sequence (P40337 54-213): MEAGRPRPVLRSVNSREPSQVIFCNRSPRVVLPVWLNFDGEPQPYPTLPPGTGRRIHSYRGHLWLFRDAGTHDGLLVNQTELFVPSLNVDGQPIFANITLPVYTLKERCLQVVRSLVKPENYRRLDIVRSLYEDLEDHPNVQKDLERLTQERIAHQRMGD
T2 sequence (Q15370 1-104 partner): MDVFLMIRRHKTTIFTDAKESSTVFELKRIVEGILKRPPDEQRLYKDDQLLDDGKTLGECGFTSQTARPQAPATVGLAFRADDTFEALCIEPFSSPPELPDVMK
T2 sequence (Q15369 whole entry partner, the tested form may be a part): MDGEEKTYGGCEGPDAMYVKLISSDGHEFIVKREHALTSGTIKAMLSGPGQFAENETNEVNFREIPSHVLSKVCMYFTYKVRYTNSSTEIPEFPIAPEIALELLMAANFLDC

Kd [1]: 2.14 µM
Kd [2]: 4.37 µM
SMILES: Cc1ncsc1-c1ccc(CNC(=O)[C@@H]2C[C@@H](O)CN2C(=O)[C@@H](NC(=O)CCCCCCCCCC(=O)NCCOc2ccc(C(=C(CCCl)c3ccccc3)c3ccc(O)cc3)cc2)C(C)(C)C)cc1 [PROTAC 8]

Source: publication PMC9681730, “DeepPROTACs is a deep learning-based targeted degradation predictor for PROTACs” (Nature Communications, 2022)
